Tests used:
Experiment in all cases: cells
Type in all cases: functional
Settings in all cases: Homo sapiens, read-out: GI
KB = tested on: KB
Description: Growth inhibition of Homo sapiens (human) KB cells at 100 ug/ml by MTT assay

NCI-H460 = tested on: NCI-H460
Description: Growth inhibition of Homo sapiens (human) NCI-H460 cells at 100 ug/ml by MTT assay

Bel-7402 = tested on: Bel-7402
Description: Growth inhibition of Homo sapiens (human) Bel7402 cells at 100 ug/ml by MTT assay

Compound | inhibition of growth at 100 µg/mL (KB) | inhibition of growth at 100 µg/mL (NCI-H460) | inhibition of growth at 100 µg/mL (Bel-7402)
O=C(CCCCCCCS)Nc1ccccc1 [8-MERCAPTO-OCTANOIC ACID PHENYLAMIDE] | 18.6% | 32.4% | 
CC(=O)SCCCCCCCC(=O)Nc1ccccc1 | 77% | 82.3% | 66.3%
